Test results from patent US8586357B2, “Markers of definitive endoderm” (ViaCyte, Inc., priority 2003, dated 2013).

Legend:
[1] = test system: definitive endoderm cells vs hESCs; assay: Gene chip analysis (Affymetrix U133 Plus 2.0) of purified definitive endoderm compared to hESCs; type: cell-based, human
Description: In the following experiment, RNA was isolated from purified definitive endoderm and human embryonic stem cell populations. Gene expression was then analyzed by gene chip analysis of the RNA from each purified population. Q-PCR was also performed to further investigate the potential of genes expressed in definitive endoderm, but not in embryonic stem cells, as a marker for definitive endoderm. Human embryonic stem cells (hESCs) were maintained in DMEM/F12 media supplemented with 20% KnockOut Serum Replacement, 4 ng/mL recombinant human basic fibroblast growth factor (bFGF), 0.1 mM 2-mercaptoethanol, L-glutamine, non-essential amino acids and penicillin/streptomycin. hESCs were differentiated to definitive endoderm by culturing for 5 days in RPMI media supplemented with 100 ng/mL of recombinant human activin A, fetal bovine serum (FBS), and penicillin/streptomycin. The concentration of FBS was varied each day as follows: 0.1% (first day), 0.2% (second day), 2% (days 3-5). Cells were isolated by fluorescence activated cell sorting (FACS) in order to obtain purified populations of hESCs and definitive endoderm for gene expression analysis. […] Cells were dissociated using trypsin/EDTA (Invitrogen, cat#25300-054), washed in phosphate buffered saline (PBS) containing 2% human serum and resuspended in 100% human serum on ice for 10 minutes to block non-specific binding. Staining was carried out for 30 minutes on ice by adding 200 uL of phycoerythrin-conjugated antibody to 5×10^6 cells in 800 uL human serum. Cells were washed twice with 8 mL of PBS buffer and resuspended in 1 mL of the same. FACS isolation was carried out by the core facility of The Scripps Research Institute using a FACS Vantage (BD Biosciences). Cells were collected directly into RLT lysis buffer and RNA was isolated by RNeasy according to the manufacturers instructions (Qiagen). Purified RNA was submitted in duplicate to Expression Analysis (Durham, N.C.) for generation of the expression profile data using the Affymetrix platform and U133 Plus 2.0 high-density oligonucleotide arrays. Data presented is a group comparison that identifies genes differentially expressed between the two populations, hESCs and definitive endoderm. […] The “Gene_Symbol” column refers to the unique name given to the gene by the HUGO Gene Nomenclature Committee. The “Raw Fold Change” column refers to the fold difference in signal for each gene in definitive endoderm compared to hESCs. The “Unigene,” “LocusLink,” and “OMIM” columns refer to identifiers that are descriptive and functional annotations derived from current National Center for Biotechnology Information (NCBI) releases of the UniGene, LocusLink, OMIM, and HomoloGene publicly available databases. […]

[2] = test system: human definitive endoderm cells; assay: Differentiation factor screening: Q-PCR of albumin, PROX1 and TITF1; type: cell-based
Description: To exemplify the differentiation factor screening methods described herein, populations of human definitive endoderm cells produced using the methods described herein were separately provided with several candidate differentiation factors while determining the normalized expression levels of certain marker gene products at various time points.
Human definitive endoderm cells were produced as described in the foregoing Examples. In brief, hESCs cells were grown in the presence of 100 ng/ml activin A in low serum RPMI medium for four days, wherein the fetal bovine serum (FBS) concentration on day 1 was 0%, on day 2 was 0.2% and on days 3-4 was 2%. After formation of definitive endoderm, beginning on day 5 and ending on day 10, cell populations maintained in individual plates in RPMI containing 0.2% FBS were treated with one of: Wnt3A at 20 ng/ml, FGF2 at 5 ng/ml or FGF2 at 100 ng/ml. The expression of marker gene products for albumin, PROX1 and TITF1 were quantitated using Q-PCR.

[3] = test system: definitive endoderm cells; assay: Maintenance and expansion of definitive endoderm cells in culture in the presence of activin; type: cell-based, human
Description: Definitive endoderm cells produced by methods described herein have been maintained and expanded in culture in the presence of activin for greater than 50 days without appreciable differentiation. In such cases, SOX17, CXCR4, MIXL1, GATA4, HNF3β expression is maintained over the culture period. Additionally, TM, SPARC, OCT4, AFP, SOX7, ZIC1 and BRACH were not detected in these cultures. It is likely that such cells can be maintained and expanded in culture for substantially longer than 50 days without appreciable differentiation.

hESCs (hESCyt-25) = assay: Q-PCR gene expression assay of marker genes in differentiating hESCs; type: cell-based, human; conditions: Wnt3a added to activin A and activin B treated cultures; FIG. 23
Description: In the following experiments, real-time quantitative RT-PCR (Q-PCR) was the primary assay used for screening the effects of various treatments on HESC differentiation. In particular, real-time measurements of gene expression were analyzed for multiple marker genes at multiple time points by Q-PCR. Marker genes characteristic of the desired as well as undesired cell types were evaluated to gain a better understanding of the overall dynamics of the cellular populations. The strength of Q-PCR analysis includes its extreme sensitivity and relative ease of developing the necessary markers, as the genome sequence is readily available. Furthermore, the extremely high sensitivity of Q-PCR permits detection of gene expression from a relatively small number of cells within a much larger population. In addition, the ability to detect very low levels of gene expression provides indications for “differentiation bias” within the population. The bias towards a particular differentiation pathway, prior to the overt differentiation of those cellular phenotypes, is unrecognizable using immunocytochemical techniques. […] Additionally, Q-PCR provides a mechanism by which to evaluate the success of a differentiation protocol in a quantitative format at semi-high throughput scales of analysis.
The approach taken here was to perform relative quantitation using SYBR Green chemistry on a Rotor Gene 3000 instrument (Corbett Research) and a two-step RT-PCR format. Such an approach allowed for the banking of cDNA samples for analysis of additional marker genes in the future, thus avoiding variability in the reverse transcription efficiency between samples.
Primers were designed to lie over exon-exon boundaries or span introns of at least 800 bp when possible, as this has been empirically determined to eliminate amplification from contaminating genomic DNA.
We routinely used Q-PCR to measure the gene expression of multiple markers of target and non-target cell types in order to provide a broad profile description of gene expression in cell samples. The markers relevant for the early phases of hESC differentiation (specifically ectoderm, mesoderm, definitive endoderm and extra-embryonic endoderm) and for which validated primer sets are available are provided below in Table 1. […] This is an important fact since the hESCs were often grown on mouse feeder layers. Most typically, triplicate samples were taken for each condition and independently analyzed in duplicate to assess the biological variability associated with each quantitative determination.
To generate PCR template, total RNA was isolated using RNeasy (Qiagen) and quantitated using RiboGreen (Molecular Probes). Reverse transcription from 350-500 ng of total RNA was carried out using the iScript reverse transcriptase kit (BioRad), which contains a mix of oligo-dT and random primers. Each 20 μL reaction was subsequently diluted up to 100 μL total volume and 3 μL was used in each 10 μL Q-PCR reaction containing 400 nM forward and reverse primers and 5 μL 2×SYBR Green master mix (Qiagen). Two step cycling parameters were used employing a 5 second denature at 85-94° C. (specifically selected according to the melting temp of the amplicon for each primer set) followed by a 45 second anneal/extend at 60° C. Fluorescence data was collected during the last 15 seconds of each extension phase. A three point, 10-fold dilution series was used to generate the standard curve for each run and cycle thresholds (Ct's) were converted to quantitative values based on this standard curve. The quantitated values for each sample were normalized to housekeeping gene performance and then average and standard deviations were calculated for triplicate samples. At the conclusion of PCR cycling, a melt curve analysis was performed to ascertain the specificity of the reaction. A single specific product was indicated by a single peak at the Tm appropriate for that PCR amplicon. […]

[4] = fold difference in gene chip signal (Affymetrix U133 Plus 2.0) for each gene in CXCR4-purified definitive endoderm (5 days, 100 ng/mL activin A) compared to SSEA4-purified hESCs
[5] = fold difference in signal for each gene in definitive endoderm (CXCR4-purified, 5 days 100 ng/mL activin A) compared to hESCs (SSEA4-purified), Affymetrix U133 Plus 2.0

Molecule: APOA1
- Raw Fold Change [1, 4]: 15.05 fold

Molecule: BMP2
- Raw Fold Change [1, 4]: 7.76 fold

Molecule: FGF2: growth factor; candidate differentiation factor
- expression of the TITF1 marker gene as compared to definitive endoderm cells on day 4 ([2]; 100 ng/ml FGF2, days 7, 9 and 10, FIG. 36C): substantially increased
- expression of the TITF1 gene product as compared to untreated definitive endoderm ([2]; FGF2 at 5 ng/ml, FIG. 36C): very little effect
- expression of the albumin gene product as compared to definitive endoderm cells on day 4 ([2]; FGF2 at 5 ng/ml, days 9 and 10, FIG. 36A): substantially increased
- expression of the albumin gene product as compared to definitive endoderm cells on day 4 ([2]; FGF2 at 100 ng/ml, days 9 and 10, FIG. 36A): not increased

Molecule: NODAL
- Raw Fold Change [1, 5]: 7.89 fold

Molecule: NPPB
- Raw Fold Change [1, 5]: 35.43 fold

Molecule: activin
- time definitive endoderm cells maintained and expanded in culture without appreciable differentiation [3]: greater than 50 days

B1: Wnt3A: Wnt family growth factor; candidate differentiation factor (protein, UniProt P56704 19-352, looked up)
Protein Wnt-3a: SYPIWWSLAVGPQYSSLGSQPILCASIPGLVPKQLRFCRNYVEIMPSVAEGIKIGIQECQHQFRGRRWNCTTVHDSLAIFGPVLDKATRESAFVHAIASAGVAFAVTRSCAEGTAAICGCSSRHQGSPGKGWKWGGCSEDIEFGGMVSREFADARENRPDARSAMNRHNNEAGRQAIASHMHLKCKCHGLSGSCEVKTCWWSQPDFRAIGDFLKDKYDSASEMVVEKHRESRGWVETLRPRYTYFKVPTERDLVYYEASPNFCEPNPETGSFGTRDRTCNVSSHGIDGCDLLCCGRGHNARAERRREKCRCVFHWCCYVSCQECTRVYDVHTCK
- SOX17 gene expression over that of activins alone (hESCs (hESCyt-25)): increases
- expression of the albumin gene product as compared to untreated definitive endoderm cells ([2]; 20 ng/ml Wnt3A, days 9 and 10, FIG. 36A): increased
